{
  "source": "paper PMC7265341",
  "about": "“Quantifying CDK inhibitor selectivity in live cells” (Nature Communications, 2020)",
  "key": {"CDK11A/Cyclin L2": {"target": "T1, CDK11A/Cyclin L2 (Homo sapiens, UniProt Q9UQ88)", "T1 sequence (Q9UQ88 1-783)": "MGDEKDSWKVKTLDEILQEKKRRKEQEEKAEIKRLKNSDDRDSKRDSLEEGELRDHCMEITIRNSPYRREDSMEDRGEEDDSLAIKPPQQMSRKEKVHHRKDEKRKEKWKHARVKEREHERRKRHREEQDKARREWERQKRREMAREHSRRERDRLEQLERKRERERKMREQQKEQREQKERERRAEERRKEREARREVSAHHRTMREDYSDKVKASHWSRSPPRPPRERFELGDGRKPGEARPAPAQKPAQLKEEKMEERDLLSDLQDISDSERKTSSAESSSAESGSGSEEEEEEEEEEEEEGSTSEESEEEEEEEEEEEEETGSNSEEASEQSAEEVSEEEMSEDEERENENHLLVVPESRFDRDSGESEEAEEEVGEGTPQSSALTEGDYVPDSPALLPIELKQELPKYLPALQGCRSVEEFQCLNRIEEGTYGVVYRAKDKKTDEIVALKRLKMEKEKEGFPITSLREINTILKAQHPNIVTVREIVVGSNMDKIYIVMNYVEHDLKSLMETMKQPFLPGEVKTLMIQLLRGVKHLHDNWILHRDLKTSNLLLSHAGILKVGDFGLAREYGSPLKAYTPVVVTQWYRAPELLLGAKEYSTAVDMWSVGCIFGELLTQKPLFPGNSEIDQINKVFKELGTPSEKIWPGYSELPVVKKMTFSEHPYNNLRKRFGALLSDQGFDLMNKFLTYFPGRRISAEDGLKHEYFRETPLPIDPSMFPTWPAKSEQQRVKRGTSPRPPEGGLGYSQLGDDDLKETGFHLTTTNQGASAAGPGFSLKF", "experiment": "NanoBRET live-cell target engagement, CDK11A-NanoLuc/Cyclin L2 in HEK-293", "format": "binding", "details": "CDK11a/L2, 10µM"}, "CDK8/Cyclin C": {"target": "CDK8/Cyclin C (Homo sapiens, UniProt P49336)", "sequence (P49336 whole entry)": "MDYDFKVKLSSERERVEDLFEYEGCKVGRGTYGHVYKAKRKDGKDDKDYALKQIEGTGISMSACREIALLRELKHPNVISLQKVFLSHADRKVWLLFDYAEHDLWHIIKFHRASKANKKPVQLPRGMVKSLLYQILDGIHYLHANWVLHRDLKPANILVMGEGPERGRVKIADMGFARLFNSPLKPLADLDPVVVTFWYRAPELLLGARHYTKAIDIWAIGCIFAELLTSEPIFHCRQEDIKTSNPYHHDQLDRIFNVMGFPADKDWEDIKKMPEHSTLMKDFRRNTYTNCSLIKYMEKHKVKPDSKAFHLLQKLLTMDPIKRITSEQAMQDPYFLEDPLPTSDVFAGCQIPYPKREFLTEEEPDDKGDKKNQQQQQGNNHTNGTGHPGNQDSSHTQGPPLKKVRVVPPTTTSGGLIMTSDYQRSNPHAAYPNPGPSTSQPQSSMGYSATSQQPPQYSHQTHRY", "sequence (P24863 whole entry partner)": "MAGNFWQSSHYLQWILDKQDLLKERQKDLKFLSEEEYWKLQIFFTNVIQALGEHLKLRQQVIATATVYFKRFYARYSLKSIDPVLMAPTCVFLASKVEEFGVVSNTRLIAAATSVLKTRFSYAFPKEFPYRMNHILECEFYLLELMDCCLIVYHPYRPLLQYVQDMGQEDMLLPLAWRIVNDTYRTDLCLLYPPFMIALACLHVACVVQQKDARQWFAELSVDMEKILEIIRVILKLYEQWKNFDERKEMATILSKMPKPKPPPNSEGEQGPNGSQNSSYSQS", "experiment": "NanoBRET live-cell target engagement, NanoLuc-CDK8/Cyclin C in HEK-293", "format": "binding", "details": "CDK8/C"}, "CDK14/Cyclin Y": {"target": "CDK14/Cyclin Y (Homo sapiens, UniProt O94921)", "experiment": "NanoBRET live-cell target engagement, CDK14-NanoLuc/Cyclin Y in HEK-293", "format": "binding", "details": "CDK14/Y"}, "CDK19/Cyclin C": {"target": "CDK19/Cyclin C (Homo sapiens, UniProt Q9BWU1)", "sequence (Q9BWU1 whole entry)": "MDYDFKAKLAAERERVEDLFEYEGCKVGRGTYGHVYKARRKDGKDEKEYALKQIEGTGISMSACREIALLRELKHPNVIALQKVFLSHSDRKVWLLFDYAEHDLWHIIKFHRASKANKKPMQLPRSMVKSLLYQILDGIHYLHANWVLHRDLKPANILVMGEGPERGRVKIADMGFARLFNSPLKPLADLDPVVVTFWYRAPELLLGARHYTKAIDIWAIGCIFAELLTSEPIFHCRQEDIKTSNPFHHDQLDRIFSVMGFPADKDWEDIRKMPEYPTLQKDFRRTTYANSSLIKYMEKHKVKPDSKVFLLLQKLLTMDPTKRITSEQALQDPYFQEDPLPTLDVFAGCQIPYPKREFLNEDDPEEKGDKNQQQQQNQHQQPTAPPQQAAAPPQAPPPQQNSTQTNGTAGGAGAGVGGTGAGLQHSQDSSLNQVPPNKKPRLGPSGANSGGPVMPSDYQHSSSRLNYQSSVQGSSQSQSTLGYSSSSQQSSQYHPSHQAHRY", "sequence (P24863 whole entry partner)": "as the sequence (P24863 whole entry partner) above", "experiment": "NanoBRET live-cell target engagement, NanoLuc-CDK19/Cyclin C in HEK-293"}, "CDK11B/Cyclin L2": {"target": "CDK11B/Cyclin L2 (Homo sapiens, UniProt P21127)", "sequence (P21127 1-782 isoform P21127-2)": "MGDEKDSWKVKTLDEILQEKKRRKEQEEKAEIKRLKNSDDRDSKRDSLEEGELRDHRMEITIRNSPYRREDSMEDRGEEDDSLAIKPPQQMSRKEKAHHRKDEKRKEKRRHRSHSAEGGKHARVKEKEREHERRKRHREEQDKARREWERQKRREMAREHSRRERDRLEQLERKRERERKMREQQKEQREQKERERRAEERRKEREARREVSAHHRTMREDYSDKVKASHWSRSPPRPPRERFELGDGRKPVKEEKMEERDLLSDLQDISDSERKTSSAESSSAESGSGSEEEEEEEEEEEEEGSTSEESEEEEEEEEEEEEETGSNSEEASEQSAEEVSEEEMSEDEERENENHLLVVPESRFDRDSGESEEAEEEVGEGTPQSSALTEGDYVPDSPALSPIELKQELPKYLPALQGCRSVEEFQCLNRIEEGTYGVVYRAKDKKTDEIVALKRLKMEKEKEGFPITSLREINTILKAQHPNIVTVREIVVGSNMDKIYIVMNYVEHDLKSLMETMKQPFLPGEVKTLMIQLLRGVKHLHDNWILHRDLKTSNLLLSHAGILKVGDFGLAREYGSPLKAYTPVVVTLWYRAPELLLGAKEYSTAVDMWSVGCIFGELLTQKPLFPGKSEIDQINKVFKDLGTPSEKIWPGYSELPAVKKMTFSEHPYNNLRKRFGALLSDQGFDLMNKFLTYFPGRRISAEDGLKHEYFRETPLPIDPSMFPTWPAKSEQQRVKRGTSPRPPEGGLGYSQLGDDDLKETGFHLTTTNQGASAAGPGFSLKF", "experiment": "NanoBRET live-cell target engagement, CDK11B-NanoLuc/Cyclin L2 in HEK-293", "format": "binding", "details": "CDK11b/L2, 10µM"}, "CDK5/CDK5R1": {"target": "CDK5/CDK5R1 (Homo sapiens, UniProt Q00535)", "sequence (Q00535 whole entry)": "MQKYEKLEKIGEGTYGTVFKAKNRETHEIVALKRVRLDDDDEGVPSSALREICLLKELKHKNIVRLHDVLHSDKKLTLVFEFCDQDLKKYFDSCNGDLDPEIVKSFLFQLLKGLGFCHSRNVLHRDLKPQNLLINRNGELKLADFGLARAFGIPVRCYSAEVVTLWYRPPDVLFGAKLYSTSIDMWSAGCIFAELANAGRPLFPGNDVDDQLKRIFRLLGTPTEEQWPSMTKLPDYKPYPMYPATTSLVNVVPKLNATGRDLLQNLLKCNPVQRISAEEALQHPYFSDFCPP", "sequence (Q15078 whole entry partner)": "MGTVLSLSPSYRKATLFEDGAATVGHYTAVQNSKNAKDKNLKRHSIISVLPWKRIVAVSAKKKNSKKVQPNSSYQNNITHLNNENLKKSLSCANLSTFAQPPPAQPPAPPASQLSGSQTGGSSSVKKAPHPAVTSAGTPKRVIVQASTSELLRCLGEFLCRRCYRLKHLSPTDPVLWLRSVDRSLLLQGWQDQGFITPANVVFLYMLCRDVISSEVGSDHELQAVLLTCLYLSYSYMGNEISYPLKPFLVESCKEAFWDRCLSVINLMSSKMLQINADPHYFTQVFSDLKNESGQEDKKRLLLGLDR", "experiment": "NanoBRET live-cell target engagement, CDK5-NanoLuc/CDK5R1 in HEK-293", "format": "binding", "details": "CDK5/CDK5R1"}, "CDK6/Cyclin D1": {"target": "CDK6/Cyclin D1 (Homo sapiens, UniProt Q00534)", "sequence (Q00534 whole entry)": "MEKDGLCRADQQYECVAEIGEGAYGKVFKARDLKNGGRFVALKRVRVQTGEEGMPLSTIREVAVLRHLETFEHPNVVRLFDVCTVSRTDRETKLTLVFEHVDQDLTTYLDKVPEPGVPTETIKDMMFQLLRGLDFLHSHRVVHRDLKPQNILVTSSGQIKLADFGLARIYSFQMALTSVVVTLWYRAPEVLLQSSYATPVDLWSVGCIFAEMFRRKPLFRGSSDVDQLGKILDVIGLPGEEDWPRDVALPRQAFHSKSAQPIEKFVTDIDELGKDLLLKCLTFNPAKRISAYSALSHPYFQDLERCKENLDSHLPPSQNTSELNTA", "sequence (P24385 whole entry partner)": "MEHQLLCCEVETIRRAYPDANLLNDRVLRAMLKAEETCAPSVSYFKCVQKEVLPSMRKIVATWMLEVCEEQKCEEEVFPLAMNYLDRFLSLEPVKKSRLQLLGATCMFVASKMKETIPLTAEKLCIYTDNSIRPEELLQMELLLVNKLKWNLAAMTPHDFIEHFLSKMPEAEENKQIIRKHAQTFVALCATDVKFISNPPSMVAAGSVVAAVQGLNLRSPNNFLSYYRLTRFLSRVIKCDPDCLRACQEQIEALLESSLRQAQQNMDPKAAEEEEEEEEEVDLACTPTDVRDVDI", "experiment": "NanoBRET live-cell target engagement, NanoLuc-CDK6/Cyclin D1 in HEK-293", "format": "binding", "details": "CDK6/D1"}, "CDK1/Cyclin E1": {"target": "CDK1/Cyclin E1 (Homo sapiens, UniProt P06493)", "sequence (P06493 whole entry)": "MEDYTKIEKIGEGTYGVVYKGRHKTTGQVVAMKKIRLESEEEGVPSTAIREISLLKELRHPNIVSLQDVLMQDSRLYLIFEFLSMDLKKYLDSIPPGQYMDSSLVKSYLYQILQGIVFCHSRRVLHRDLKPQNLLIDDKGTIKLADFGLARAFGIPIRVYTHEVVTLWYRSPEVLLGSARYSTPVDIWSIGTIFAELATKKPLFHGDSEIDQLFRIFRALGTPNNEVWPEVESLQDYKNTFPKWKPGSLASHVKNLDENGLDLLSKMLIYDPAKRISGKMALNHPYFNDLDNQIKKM", "sequence (P24864 whole entry partner)": "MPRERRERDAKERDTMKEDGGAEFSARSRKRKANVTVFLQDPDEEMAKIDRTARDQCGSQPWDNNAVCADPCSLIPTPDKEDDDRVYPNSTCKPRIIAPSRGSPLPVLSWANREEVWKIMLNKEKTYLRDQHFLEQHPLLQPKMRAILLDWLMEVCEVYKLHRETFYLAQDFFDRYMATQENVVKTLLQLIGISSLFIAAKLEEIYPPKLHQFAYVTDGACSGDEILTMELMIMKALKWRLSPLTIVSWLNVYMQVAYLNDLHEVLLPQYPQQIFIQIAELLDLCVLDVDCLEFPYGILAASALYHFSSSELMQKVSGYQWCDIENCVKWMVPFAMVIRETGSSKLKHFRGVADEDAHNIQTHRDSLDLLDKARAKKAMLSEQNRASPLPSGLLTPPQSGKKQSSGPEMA", "experiment": "NanoBRET live-cell target engagement, CDK1-NanoLuc/Cyclin E1 in HEK-293", "format": "binding"}, "CDK16/Cyclin Y": {"target": "CDK16/Cyclin Y (Homo sapiens, UniProt Q00536)", "sequence (Q00536 whole entry)": "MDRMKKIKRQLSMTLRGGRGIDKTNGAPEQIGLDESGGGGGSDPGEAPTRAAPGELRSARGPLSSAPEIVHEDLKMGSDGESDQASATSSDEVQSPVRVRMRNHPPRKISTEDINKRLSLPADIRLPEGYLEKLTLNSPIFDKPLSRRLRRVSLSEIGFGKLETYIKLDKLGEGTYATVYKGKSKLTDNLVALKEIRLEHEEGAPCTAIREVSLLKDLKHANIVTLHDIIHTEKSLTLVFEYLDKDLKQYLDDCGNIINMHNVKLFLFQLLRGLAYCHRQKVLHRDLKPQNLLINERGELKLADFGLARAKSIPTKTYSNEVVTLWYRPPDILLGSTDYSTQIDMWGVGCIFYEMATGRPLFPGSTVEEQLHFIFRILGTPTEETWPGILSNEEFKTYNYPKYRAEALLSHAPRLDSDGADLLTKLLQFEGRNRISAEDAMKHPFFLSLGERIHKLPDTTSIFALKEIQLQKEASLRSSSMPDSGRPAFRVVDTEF", "sequence (Q8ND76 whole entry partner)": "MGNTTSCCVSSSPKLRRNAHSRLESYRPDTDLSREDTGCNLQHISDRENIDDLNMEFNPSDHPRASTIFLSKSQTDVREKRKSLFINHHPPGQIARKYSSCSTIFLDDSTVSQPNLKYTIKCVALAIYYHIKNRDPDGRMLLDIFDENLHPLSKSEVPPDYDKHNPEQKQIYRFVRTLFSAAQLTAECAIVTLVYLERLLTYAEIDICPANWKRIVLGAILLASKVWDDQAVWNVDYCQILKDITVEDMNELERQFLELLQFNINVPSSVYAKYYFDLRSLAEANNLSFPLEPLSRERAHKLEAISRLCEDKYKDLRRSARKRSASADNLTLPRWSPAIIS", "experiment": "NanoBRET live-cell target engagement, CDK16-NanoLuc/Cyclin Y in HEK-293", "format": "binding", "details": "CDK16/Y"}, "[1]": {"details": "n=3 average ± SEM, n=2 average to 2 significant figures, read-out: IC50 (nM) Average*"}, "[2]": {"details": "read-out: IC50 (nM) Replicate 1"}, "[3]": {"details": "read-out: IC50 (nM) Replicate 2"}},
  "note": "Read-outs that look alike come from different tables or passages of the source.",
  "data": [
    {"molecule": "CNC1CCN(C(=O)c2ccc(Nc3ncc(F)c(-c4cnc(C)n4C(C)C)n3)cc2)C1", "note": "(centres unmarked) [AZD5597]", "values": [
      {"measurement": "Inhibition at 10µM (%) Replicate 1", "setting": "CDK11A/Cyclin L2", "result": 89.7, "unit": "%"},
      {"measurement": "Inhibition at 10µM (%) Replicate 2", "setting": "CDK11A/Cyclin L2", "result": 90.1, "unit": "%"},
      {"measurement": "Inhibition at 10µM (%) Average", "setting": "CDK11A/Cyclin L2; average of replicates", "result": 89.9, "unit": "%"},
      {"measurement": "Inhibition at 10µM (%) Replicate 1", "setting": "CDK8/Cyclin C; 10µM", "result": 91.3, "unit": "%"},
      {"measurement": "Inhibition at 10µM (%) Replicate 2", "setting": "CDK8/Cyclin C; 10µM", "result": 98.8, "unit": "%"},
      {"measurement": "Inhibition at 10µM (%) Average", "setting": "CDK8/Cyclin C; 10µM, average of replicates", "result": 95.1, "unit": "%"},
      {"measurement": "IC50", "setting": "CDK8/Cyclin C; [1]", "result": 370, "unit": "nM"},
      {"measurement": "IC50", "setting": "CDK8/Cyclin C; [2]", "result": 434, "unit": "nM"},
      {"measurement": "IC50", "setting": "CDK8/Cyclin C; [3]", "result": 297, "unit": "nM"},
      {"measurement": "Inhibition at 10µM (%) Replicate 1", "setting": "CDK14/Cyclin Y; 10µM", "result": 93.6, "unit": "%"},
      {"measurement": "Inhibition at 10µM (%) Replicate 2", "setting": "CDK14/Cyclin Y; 10µM", "result": 93.4, "unit": "%"},
      {"measurement": "Inhibition at 10µM (%) Average", "setting": "CDK14/Cyclin Y; 10µM, average of replicates", "result": 93.5, "unit": "%"},
      {"measurement": "IC50", "setting": "CDK14/Cyclin Y; [1]", "result": 250, "unit": "nM"},
      {"measurement": "IC50", "setting": "CDK14/Cyclin Y; [2]", "result": 151, "unit": "nM"},
      {"measurement": "IC50", "setting": "CDK14/Cyclin Y; [3]", "result": 350, "unit": "nM"},
      {"measurement": "Inhibition at 10µM (%) Replicate 1", "setting": "CDK19/Cyclin C; CDK19/C, 10µM", "result": 88.7, "unit": "%"},
      {"measurement": "Inhibition at 10µM (%) Replicate 2", "setting": "CDK19/Cyclin C; CDK19/C, 10µM", "result": 89.0, "unit": "%"},
      {"measurement": "Inhibition at 10µM (%) Average", "setting": "CDK19/Cyclin C; CDK19/C, 10µM, average of replicates", "result": 88.9, "unit": "%"},
      {"measurement": "IC50", "setting": "CDK19/Cyclin C; read-out: IC50 (nM) Average*, CDK19/Y, n=3 average ± SEM, n=2 average to 2 significant figures", "result": 240, "unit": "nM"},
      {"measurement": "IC50", "setting": "CDK19/Cyclin C; read-out: IC50 (nM) Replicate 1, CDK19/C", "result": 354, "unit": "nM"},
      {"measurement": "IC50", "setting": "CDK19/Cyclin C; read-out: IC50 (nM) Replicate 2, CDK19/C", "result": 119, "unit": "nM"},
      {"measurement": "Inhibition at 10µM (%) Replicate 1", "setting": "CDK11B/Cyclin L2", "result": 88.8, "unit": "%"},
      {"measurement": "Inhibition at 10µM (%) Replicate 2", "setting": "CDK11B/Cyclin L2", "result": 88.6, "unit": "%"},
      {"measurement": "Inhibition at 10µM (%) Average", "setting": "CDK11B/Cyclin L2; average of replicates", "result": 88.7, "unit": "%"},
      {"measurement": "Inhibition at 10µM (%) Replicate 1", "setting": "CDK5/CDK5R1; 10µM", "result": 90.7, "unit": "%"},
      {"measurement": "Inhibition at 10µM (%) Replicate 2", "setting": "CDK5/CDK5R1; 10µM", "result": 97.1, "unit": "%"},
      {"measurement": "Inhibition at 10µM (%) Average", "setting": "CDK5/CDK5R1; 10µM, average of replicates", "result": 93.9, "unit": "%"},
      {"measurement": "IC50", "setting": "CDK5/CDK5R1; [1]", "result": 10, "unit": "nM"},
      {"measurement": "IC50", "setting": "CDK5/CDK5R1; [2]", "result": 8.2, "unit": "nM"},
      {"measurement": "IC50", "setting": "CDK5/CDK5R1; [3]", "result": 12, "unit": "nM"},
      {"measurement": "Inhibition at 10µM (%) Replicate 1", "setting": "CDK6/Cyclin D1; 10µM", "result": 99.7, "unit": "%"},
      {"measurement": "Inhibition at 10µM (%) Replicate 2", "setting": "CDK6/Cyclin D1; 10µM", "result": 100.6, "unit": "%"},
      {"measurement": "Inhibition at 10µM (%) Average", "setting": "CDK6/Cyclin D1; 10µM, average of replicates", "result": 100.1, "unit": "%"},
      {"measurement": "IC50", "setting": "CDK6/Cyclin D1; [1]", "result": 8.3, "unit": "nM"},
      {"measurement": "IC50", "setting": "CDK6/Cyclin D1; [2]", "result": 10, "unit": "nM"},
      {"measurement": "IC50", "setting": "CDK6/Cyclin D1; [3]", "result": 6.5, "unit": "nM"},
      {"measurement": "Inhibition at 10µM (%) Replicate 1", "setting": "CDK1/Cyclin E1; CDK1/E1, 10µM", "result": 93.8, "unit": "%"},
      {"measurement": "Inhibition at 10µM (%) Replicate 2", "setting": "CDK1/Cyclin E1; CDK1/E1, 10µM", "result": 95.4, "unit": "%"},
      {"measurement": "Inhibition at 10µM (%) Average", "setting": "CDK1/Cyclin E1; CDK1/E1, 10µM, average of replicates", "result": 94.6, "unit": "%"},
      {"measurement": "IC50", "setting": "CDK1/Cyclin E1; CDK1/E1, n=3 average ± SEM, n=2 average to 2 significant figures, read-out: IC50 (nM) Average*", "result": 9, "unit": "nM"},
      {"measurement": "IC50", "setting": "CDK1/Cyclin E1; CDK1/E1, read-out: IC50 (nM) Replicate 1", "result": 9, "unit": "nM"},
      {"measurement": "IC50", "setting": "CDK1/Cyclin E1; CDK1/E1, read-out: IC50 (nM) Replicate 2", "result": 9, "unit": "nM"},
      {"measurement": "IC50", "setting": "CDK1/Cyclin E1; live HEK-293, 2 h, mean ± S.E.M. (n=3) or mean (n=2), read-out: IC50 for CDK/cyclin complexes, CDK1/E1", "result": 9, "unit": "nM"},
      {"measurement": "Inhibition at 10µM (%) Replicate 1", "setting": "CDK16/Cyclin Y; 10µM", "result": 88.2, "unit": "%"},
      {"measurement": "Inhibition at 10µM (%) Replicate 2", "setting": "CDK16/Cyclin Y; 10µM", "result": 91.4, "unit": "%"},
      {"measurement": "IC50", "setting": "CDK16/Cyclin Y; [1]", "result": 13, "unit": "nM"},
      {"measurement": "IC50", "setting": "CDK16/Cyclin Y; [2]", "result": 8.9, "unit": "nM"}
    ]}
  ]
}
